Literature values in patent publication US20230139125A1, “DIETARY SUPPLEMENT FOR IMPROVING BRAIN PERFORMANCE” (priority 2021, published 2023).

Columns and labels:
age-related memory loss = details: end of six-month period; participants with relatively low memory scores at start; compared to placebo
[1] = tested on: brain-derived neurotrophic factor (i.e. BDNF); details: ingesting small amounts

Substance	memory (age-related memory loss)	brain-derived neurotrophic factor (i.e. BDNF) [1]
Phosphatidylserine [PS]	significant improvement in memory	
chlorogenic acids		not obtained
